Experimental data: patent US20170008888A1 (KYORIN PHARMACEUTICAL CO., LTD., priority 2014, published 2017)

Assays:
BRD4 = molecular target: T1, BRD4 (Homo sapiens, UniProt O60885); experiment: Bromodomain binding assay: BRD4
T1 construct: read out by qPCR of the phage DNA
Description: (§1) T7 phage strains displaying bromodomains were grown in parallel in 24-well blocks in an E. coli host derived from the BL21 strain. E. coli were grown to log-phase and infected with T7 phage from a frozen stock (multiplicity of infection=0.4) and incubated with shaking at 32° C. until lysis (90-150 minutes). The lysates were centrifuged (5,000×g) and filtered (0.2 μm) to remove cell debris. […] The liganded beads were blocked with excess biotin and washed with blocking buffer (SeaBlock (Pierce), 1% BSA, 0.05 Tween 20, 1 mM DTT) to remove unbound ligand and to reduce non-specific phage binding. […] Test compounds (T62 and 46) were prepared as 1000× stocks in 100% DMSO and subsequently diluted 1:10 in monoethylene glycol (MEG) to create stocks at 100× the screening concentration (resulting stock solution is 10% DMSO/90% MEG). The compounds were then diluted directly into the assays such that the final concentration of DMSO and MEG were 0.1% and 0.9%, respectively. All reactions were performed in polystyrene 96-well plates in a final volume of 0.135 ml. […] The bromodomain concentration in the eluates was measured by qPCR. Compounds were assayed for binding activity against a panel of 40 bromodomain-containing proteins.

ATAD2A = molecular target: T2, ATAD2A (Homo sapiens, UniProt Q6PL18); experiment: Bromodomain binding assay: ATAD2A
T2 construct: T7 phage strains displaying bromodomains were grown in parallel; made in house; host or cells: E. coli host derived from BL21, infected with T7 phage
T2 sequence (Q6PL18 980-1092 limits assumed): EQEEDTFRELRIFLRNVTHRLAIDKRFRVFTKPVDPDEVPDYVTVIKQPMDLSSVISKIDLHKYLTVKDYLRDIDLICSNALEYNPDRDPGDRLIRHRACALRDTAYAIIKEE
Description: as §1

BRD3 = molecular target: T3, BRD3 (Homo sapiens, UniProt Q15059); experiment: Bromodomain binding assay: BRD3
T3 construct: read out by qPCR of the phage DNA
T3 sequence (Q15059 whole entry): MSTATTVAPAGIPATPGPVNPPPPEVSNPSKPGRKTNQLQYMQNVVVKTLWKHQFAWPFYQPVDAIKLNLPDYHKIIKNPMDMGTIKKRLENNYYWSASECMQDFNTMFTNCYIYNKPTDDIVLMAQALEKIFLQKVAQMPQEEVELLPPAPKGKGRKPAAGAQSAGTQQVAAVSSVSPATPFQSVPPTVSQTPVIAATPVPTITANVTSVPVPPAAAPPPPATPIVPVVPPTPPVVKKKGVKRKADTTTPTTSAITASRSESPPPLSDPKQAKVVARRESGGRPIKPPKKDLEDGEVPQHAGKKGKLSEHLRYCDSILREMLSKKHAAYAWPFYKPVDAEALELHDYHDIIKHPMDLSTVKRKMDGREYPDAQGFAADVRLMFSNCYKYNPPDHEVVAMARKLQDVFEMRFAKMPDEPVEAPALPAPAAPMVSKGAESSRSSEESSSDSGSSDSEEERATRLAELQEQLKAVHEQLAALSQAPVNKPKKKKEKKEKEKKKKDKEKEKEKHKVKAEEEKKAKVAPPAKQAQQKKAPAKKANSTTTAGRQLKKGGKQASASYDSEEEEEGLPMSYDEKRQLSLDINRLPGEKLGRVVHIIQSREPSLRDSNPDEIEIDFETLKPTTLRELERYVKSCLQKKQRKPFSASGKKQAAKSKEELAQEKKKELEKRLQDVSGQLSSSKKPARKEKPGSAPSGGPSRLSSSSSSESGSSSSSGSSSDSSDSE
Description: as §1

[1] = tested on: DNFB-induced ear inflammation mouse model; experiment: DNFB-induced ear inflammation mouse model: cytokine concentrations in ear tissue; format: in vivo, mouse (Balb/c)
Description: In vivo T-cell mediated immune response was examined in a mouse model of CHS using the hapten dinitrofluorobenzene (DNFB) as the induction agent. […] On Days 0 and 1 (sensitization), 20 μL of 0.5% v/v DNFB in acetone:olive oil (4:1) was applied to each hindpaw of 8 week old male mice (Balb/c, Charles River Laboratories; 10 mice per group unless otherwise noted). On Day 5 (elicitation) 10 μL of 0.2% v/v DNFB in acetone: olive oil (4:1) was applied to the dorsal surface of the right ear of each animal; 10 μL of acetone: olive oil (4:1) was applied to the dorsal surface of the left ear as control. Treatments were administered by group as indicated in the table below; on days when DNFB was used, the QD and the morning dose of BID as appropriate were administered 30 minutes-1 hr. prior to DNFB application. […] Approximately 24 hours after elicitation (Day 6), a 7 mm tissue punch from the central portion of both ears was collected and wet weights measured. The primary functional assessment was the difference in wet weights of the right (DNFB) vs. left (vehicle) ears compared to the vehicle treatment (Vehicle1-S) as an indicator of inflammation (Table 17). Ear tissue punches were flash frozen, stored at −70° C. and analyzed for cytokines (see below).
Cytokine concentrations after DNFB induction and treatment were analyzed in the weighed and flash frozen tissues of the right (DNFB) and left (control) 7 mm ear punches. The ear tissues were stored at −70° C. until prepared for analysis as follows. Left or right ear tissues from the same treatment group were pooled and crushed with mortar and pestle under liquid nitrogen. Tissue representing 7-8 ear punches by weight was homogenized in Buffer A (50 mM HEPES pH 7.4, 100 mM NaCl) containing 1 tablet EDTA-free Protease Inhibitor (Thermo Fisher Scientific, Rockford, Ill.) per 10 mL, 1× Phosphatase Inhibitor Cocktail II (AG Scientific, San Diego, Calif.), and 1 mM PMSF (Sigma, St. Louis, Mo.). Homogenization was performed in Lysing Matrix D tubes (MP Biomedicals, Solon, Ohio), using the FastPrep-24 instrument (MP Biomedicals) at a speed setting of 6 for 4 cycles of 30 seconds, with cooling on ice in between cycles. The tubes were then centrifuged at 1,000×g for 10 min at 4° C. Supernatant was collected and briefly sonicated using the Microson probe sonicator at setting 3 (Misonix, Farmingdale, N.Y.) before centrifuging again at 10,000×g for 10 min at 4° C. The supernatant was ultracentrifuged at 100,000×g for 1 h at 4° C. in the Optima Max-E (Beckman Coulter, Indianapolis, Ind.) to separate soluble and membrane protein fractions. The soluble (supernatant) fraction was collected and protein concentrations determined using the Dc protein kit (Bio-Rad, Hercules, Calif.). Soluble ear proteins were analyzed in triplicate for cytokine response at a final protein concentration of 4 mg/ml using the Bio-Plex Pro Mouse Cytokine 23-Plex panel (Bio-Rad) as per manufacturer's protocols. Magnetic beads were read on the Bio-Plex MAGPIX multiplex reader instrument using the accompanying xPONENT 4.2 acquisition software (Bio-Rad Laboratories, Hercules, Calif.). Data were analyzed via the Bio-Plex Manager software v6.1 (Bio-Rad Laboratories). Response was calculated as a percentage of the cytokine concentrations measured in the right (DNFB) ears of vehicle 1 dosed (S regimen, i.e. dosed Day 0-5) mice (Table 18).

CCOc1cc(C(=O)N2CCC(N3CCCC3)CC2)ccc1Nc1cc2c(cn1)N(C)C(=O)c1ccccc1N2C [Compound 46, 3-(2-Ethoxy-4-(4-(pyrrolidin-1-yl)piperidine-1-carbonyl)phenylamino)-5,11-dimethyl-5H-benzo[e]pyrido[3,4-b][1,4]diazepin-10(11H)-one]
Kd (BRD4): 41 nM
Kd (ATAD2A): > 20000 nM
Kd (BRD3): 33 nM
G-CSF: Mean % Cytokine Concentration in DNFB Treated Right Ears versus Vehicle 1-Dosed (S) Mice ([1]; 25 mg/kg, regimen E): 58%
GM-CSF: Mean % Cytokine Concentration in DNFB Treated Right Ears versus Vehicle 1-Dosed (S) Mice ([1]; 25 mg/kg, regimen E): 29%
IFN-γ: Mean % Cytokine Concentration in DNFB Treated Right Ears versus Vehicle 1-Dosed (S) Mice ([1]; 25 mg/kg, regimen E): 51%
IL-1α: Mean % Cytokine Concentration in DNFB Treated Right Ears versus Vehicle 1-Dosed (S) Mice ([1]; 25 mg/kg, regimen E): 128%
IL-1β: Mean % Cytokine Concentration in DNFB Treated Right Ears versus Vehicle 1-Dosed (S) Mice ([1]; 25 mg/kg, regimen E): 57%
IL-3: Mean % Cytokine Concentration in DNFB Treated Right Ears versus Vehicle 1-Dosed (S) Mice ([1]; 25 mg/kg, regimen E): 75%
IL-5: Mean % Cytokine Concentration in DNFB Treated Right Ears versus Vehicle 1-Dosed (S) Mice ([1]; 25 mg/kg, regimen E): 63%
IL-6: Mean % Cytokine Concentration in DNFB Treated Right Ears versus Vehicle 1-Dosed (S) Mice ([1]; 25 mg/kg, regimen E): 53%
IL-12 (p40): Mean % Cytokine Concentration in DNFB Treated Right Ears versus Vehicle 1-Dosed (S) Mice ([1]; 25 mg/kg, regimen E): 81%
IL-13: Mean % Cytokine Concentration in DNFB Treated Right Ears versus Vehicle 1-Dosed (S) Mice ([1]; 25 mg/kg, regimen E): 79%
IL-17A: Mean % Cytokine Concentration in DNFB Treated Right Ears versus Vehicle 1-Dosed (S) Mice ([1]; 25 mg/kg, regimen E): 53%
KC: Mean % Cytokine Concentration in DNFB Treated Right Ears versus Vehicle 1-Dosed (S) Mice ([1]; 25 mg/kg, regimen E): 30%
MCP-1: Mean % Cytokine Concentration in DNFB Treated Right Ears versus Vehicle 1-Dosed (S) Mice ([1]; 25 mg/kg, regimen E): 37%
MIP-1α: Mean % Cytokine Concentration in DNFB Treated Right Ears versus Vehicle 1-Dosed (S) Mice ([1]; 25 mg/kg, regimen E): 62%
MIP-1β: Mean % Cytokine Concentration in DNFB Treated Right Ears versus Vehicle 1-Dosed (S) Mice ([1]; 25 mg/kg, regimen E): 44%
RANTES: Mean % Cytokine Concentration in DNFB Treated Right Ears versus Vehicle 1-Dosed (S) Mice ([1]; 25 mg/kg, regimen E): 55%
TNF-α: Mean % Cytokine Concentration in DNFB Treated Right Ears versus Vehicle 1-Dosed (S) Mice ([1]; 25 mg/kg, regimen E): 67%
G-CSF: Mean % Cytokine Concentration in DNFB Treated Right Ears versus Vehicle 1-Dosed (S) Mice ([1]; 60 mg/kg, regimen E): 36%
GM-CSF: Mean % Cytokine Concentration in DNFB Treated Right Ears versus Vehicle 1-Dosed (S) Mice ([1]; 60 mg/kg, regimen E): 0%
IFN-γ: Mean % Cytokine Concentration in DNFB Treated Right Ears versus Vehicle 1-Dosed (S) Mice ([1]; 60 mg/kg, regimen E): 25%
IL-1α: Mean % Cytokine Concentration in DNFB Treated Right Ears versus Vehicle 1-Dosed (S) Mice ([1]; 60 mg/kg, regimen E): 120%
IL-1β: Mean % Cytokine Concentration in DNFB Treated Right Ears versus Vehicle 1-Dosed (S) Mice ([1]; 60 mg/kg, regimen E): 32%
IL-3: Mean % Cytokine Concentration in DNFB Treated Right Ears versus Vehicle 1-Dosed (S) Mice ([1]; 60 mg/kg, regimen E): 53%
IL-5: Mean % Cytokine Concentration in DNFB Treated Right Ears versus Vehicle 1-Dosed (S) Mice ([1]; 60 mg/kg, regimen E): 23%
IL-6: Mean % Cytokine Concentration in DNFB Treated Right Ears versus Vehicle 1-Dosed (S) Mice ([1]; 60 mg/kg, regimen E): 31%
IL-12 (p40): Mean % Cytokine Concentration in DNFB Treated Right Ears versus Vehicle 1-Dosed (S) Mice ([1]; 60 mg/kg, regimen E): 64%
IL-13: Mean % Cytokine Concentration in DNFB Treated Right Ears versus Vehicle 1-Dosed (S) Mice ([1]; 60 mg/kg, regimen E): 61%
IL-17A: Mean % Cytokine Concentration in DNFB Treated Right Ears versus Vehicle 1-Dosed (S) Mice ([1]; 60 mg/kg, regimen E): 42%
KC: Mean % Cytokine Concentration in DNFB Treated Right Ears versus Vehicle 1-Dosed (S) Mice ([1]; 60 mg/kg, regimen E): 21%
MCP-1: Mean % Cytokine Concentration in DNFB Treated Right Ears versus Vehicle 1-Dosed (S) Mice ([1]; 60 mg/kg, regimen E): 31%
MIP-1α: Mean % Cytokine Concentration in DNFB Treated Right Ears versus Vehicle 1-Dosed (S) Mice ([1]; 60 mg/kg, regimen E): 42%
MIP-1β: Mean % Cytokine Concentration in DNFB Treated Right Ears versus Vehicle 1-Dosed (S) Mice ([1]; 60 mg/kg, regimen E): 31%
RANTES: Mean % Cytokine Concentration in DNFB Treated Right Ears versus Vehicle 1-Dosed (S) Mice ([1]; 60 mg/kg, regimen E): 37%
TNF-α: Mean % Cytokine Concentration in DNFB Treated Right Ears versus Vehicle 1-Dosed (S) Mice ([1]; 60 mg/kg, regimen E): 48%
G-CSF: Mean % Cytokine Concentration in DNFB Treated Right Ears versus Vehicle 1-Dosed (S) Mice ([1]; 60 mg/kg, regimen S): 27%
GM-CSF: Mean % Cytokine Concentration in DNFB Treated Right Ears versus Vehicle 1-Dosed (S) Mice ([1]; 60 mg/kg, regimen S): 0%
IFN-γ: Mean % Cytokine Concentration in DNFB Treated Right Ears versus Vehicle 1-Dosed (S) Mice ([1]; 60 mg/kg, regimen S): 22%
IL-1α: Mean % Cytokine Concentration in DNFB Treated Right Ears versus Vehicle 1-Dosed (S) Mice ([1]; 60 mg/kg, regimen S): 88%
IL-1β: Mean % Cytokine Concentration in DNFB Treated Right Ears versus Vehicle 1-Dosed (S) Mice ([1]; 60 mg/kg, regimen S): 23%
IL-3: Mean % Cytokine Concentration in DNFB Treated Right Ears versus Vehicle 1-Dosed (S) Mice ([1]; 60 mg/kg, regimen S): 45%
IL-5: Mean % Cytokine Concentration in DNFB Treated Right Ears versus Vehicle 1-Dosed (S) Mice ([1]; 60 mg/kg, regimen S): 5%
IL-6: Mean % Cytokine Concentration in DNFB Treated Right Ears versus Vehicle 1-Dosed (S) Mice ([1]; 60 mg/kg, regimen S): 20%
IL-12 (p40): Mean % Cytokine Concentration in DNFB Treated Right Ears versus Vehicle 1-Dosed (S) Mice ([1]; 60 mg/kg, regimen S): 49%
IL-13: Mean % Cytokine Concentration in DNFB Treated Right Ears versus Vehicle 1-Dosed (S) Mice ([1]; 60 mg/kg, regimen S): 47%
IL-17A: Mean % Cytokine Concentration in DNFB Treated Right Ears versus Vehicle 1-Dosed (S) Mice ([1]; 60 mg/kg, regimen S): 38%
KC: Mean % Cytokine Concentration in DNFB Treated Right Ears versus Vehicle 1-Dosed (S) Mice ([1]; 60 mg/kg, regimen S): 19%
MCP-1: Mean % Cytokine Concentration in DNFB Treated Right Ears versus Vehicle 1-Dosed (S) Mice ([1]; 60 mg/kg, regimen S): 27%
MIP-1α: Mean % Cytokine Concentration in DNFB Treated Right Ears versus Vehicle 1-Dosed (S) Mice ([1]; 60 mg/kg, regimen S): 29%
MIP-1β: Mean % Cytokine Concentration in DNFB Treated Right Ears versus Vehicle 1-Dosed (S) Mice ([1]; 60 mg/kg, regimen S): 24%
RANTES: Mean % Cytokine Concentration in DNFB Treated Right Ears versus Vehicle 1-Dosed (S) Mice ([1]; 60 mg/kg, regimen S): 27%
TNF-α: Mean % Cytokine Concentration in DNFB Treated Right Ears versus Vehicle 1-Dosed (S) Mice ([1]; 60 mg/kg, regimen S): 39%
